{"source": "ChEMBL document CHEMBL1149919", "about": "“Inhibition of human rhinovirus 3C protease by homophthalimides” (Bioorg Med Chem Lett, 1997)", "data": [{"biological_target": "T1, Human rhinovirus A protease (Human rhinovirus sp., UniProt Q4U254)", "T1 sequence (Q4U254 whole entry)": "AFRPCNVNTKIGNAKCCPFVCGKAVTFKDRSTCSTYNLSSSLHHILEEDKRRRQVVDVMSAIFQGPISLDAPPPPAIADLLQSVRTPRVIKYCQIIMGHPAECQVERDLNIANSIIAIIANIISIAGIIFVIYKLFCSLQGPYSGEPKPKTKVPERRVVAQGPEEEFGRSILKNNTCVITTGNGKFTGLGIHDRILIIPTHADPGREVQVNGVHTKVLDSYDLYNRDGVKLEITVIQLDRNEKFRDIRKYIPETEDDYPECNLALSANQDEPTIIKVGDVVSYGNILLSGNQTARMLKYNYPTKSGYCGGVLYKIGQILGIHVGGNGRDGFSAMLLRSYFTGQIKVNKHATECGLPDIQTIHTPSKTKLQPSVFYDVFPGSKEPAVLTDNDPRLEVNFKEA", "test": "The compound was tested for the inhibitory activity against HRV-14 (human rhinovirus) Protease 3C", "conditions": "not given", "units": {"IC50": "µM"}, "values": [{"compound": "CS(=O)(=O)CCCN1C(=O)c2ccccc2C(CC(=O)c2ccccc2)C1=O", "note": "(stereo unspecified)", "IC50": 25}, {"compound": "CSCCCN1C(=O)c2ccccc2C(CC(=O)c2ccccc2)C1=O", "note": "(stereo unspecified)", "IC50": 131}, {"compound": "CN1C(=O)c2ccccc2C(CC(=O)c2ccc(F)cc2)C1=O", "note": "(stereo unspecified)", "IC50": 41.1}, {"compound": "CCOC(=O)CCN1C(=O)c2ccccc2C(CC(=O)c2ccccc2)C1=O", "note": "(stereo unspecified)", "IC50": 55.3}, {"compound": "CS(=O)(=O)CCN1C(=O)c2ccccc2C(CC(=O)c2ccccc2)C1=O", "note": "(stereo unspecified)", "IC50": 22.1}]}, {"tested_on": "HeLa", "test": "Antiviral activity in a one-cycle viral replication assay against HRV-14 (human rhinovirus) infected HeLa cells", "type": "functional, cell-based", "conditions": "not given", "units": {"IC50": "µM"}, "values": [{"compound": "CS(=O)(=O)CCCN1C(=O)c2ccccc2C(CC(=O)c2ccccc2)C1=O", "note": "(stereo unspecified)", "IC50": "> 10"}, {"compound": "CSCCCN1C(=O)c2ccccc2C(CC(=O)c2ccccc2)C1=O", "note": "(stereo unspecified)", "IC50": "> 10"}, {"compound": "CN1C(=O)c2ccccc2C(CC(=O)c2ccc(F)cc2)C1=O", "note": "(stereo unspecified)", "IC50": "> 10"}, {"compound": "CCOC(=O)CCN1C(=O)c2ccccc2C(CC(=O)c2ccccc2)C1=O", "note": "(stereo unspecified)", "IC50": 6}, {"compound": "CS(=O)(=O)CCN1C(=O)c2ccccc2C(CC(=O)c2ccccc2)C1=O", "note": "(stereo unspecified)", "IC50": 8.5}]}, {"tested_on": "not listed separately", "test": "Therapeutic index was determined", "conditions": "read-out: TI", "values": [{"compound": "CCOC(=O)CCN1C(=O)c2ccccc2C(CC(=O)c2ccccc2)C1=O", "note": "(stereo unspecified)", "selectivity ratio": 16.7}, {"compound": "CS(=O)(=O)CCN1C(=O)c2ccccc2C(CC(=O)c2ccccc2)C1=O", "note": "(stereo unspecified)", "selectivity ratio": 8.3}]}, {"biological_target": "T2, Human rhinovirus A protease (Human rhinovirus sp.) (UniProt Q4U254)", "T2 sequence (whole entry)": "T1 sequence (Q4U254 whole entry)", "test": "Inhibition of Protease 3C of HRV-14 (human rhinovirus)", "set-up": "concentration or dose not given beside the values", "conditions": "Rhinovirus B; concentration not given here", "units": {"inhibition": "%"}, "values": [{"compound": "CS(=O)(=O)CCCN1C(=O)c2ccccc2C(CC(=O)c2ccccc2)C1=O", "note": "(stereo unspecified)", "inhibition": 70}, {"compound": "CSCCCN1C(=O)c2ccccc2C(CC(=O)c2ccccc2)C1=O", "note": "(stereo unspecified)", "inhibition": 35}, {"compound": "C[S+]([O-])CCN1C(=O)Cc2ccccc2C1=O", "note": "(stereo unspecified)", "inhibition": 19}, {"compound": "CSCCCN1C(=O)Cc2ccccc2C1=O", "inhibition": 16}, {"compound": "CCOC(=O)CCN1C(=O)c2ccccc2C(C(C)=O)C1=O", "note": "(stereo unspecified)", "inhibition": 8}, {"compound": "NC(=O)CCN1C(=O)Cc2ccccc2C1=O", "inhibition": 11}, {"compound": "CN1C(=O)Cc2ccccc2C1=O", "inhibition": 14}, {"compound": "CN1C(=O)c2ccccc2C(CC(=O)c2ccc(F)cc2)C1=O", "note": "(stereo unspecified)", "inhibition": 72}, {"compound": "O=C(O)CCN1C(=O)Cc2ccccc2C1=O", "inhibition": 0}, {"compound": "CCOC(=O)CCN1C(=O)Cc2ccccc2C1=O", "inhibition": 13}, {"compound": "CS(=O)(=O)CCN1C(=O)Cc2ccccc2C1=O", "inhibition": 6}, {"compound": "CCOC(=O)CCN1C(=O)c2ccccc2C(CC(=O)c2ccccc2)C1=O", "note": "(stereo unspecified)", "inhibition": 71}, {"compound": "CSCCN1C(=O)Cc2ccccc2C1=O", "inhibition": 13}, {"compound": "CS(=O)(=O)CCN1C(=O)c2ccccc2C(CC(=O)c2ccccc2)C1=O", "note": "(stereo unspecified)", "inhibition": 100}]}, {"tested_on": "not listed separately", "test": "Cytotoxic effect against HeLa cell line measured by XTT assay", "type": "cell-based", "conditions": "human, HeLa cells; read-out: TC50 (the source's name)", "units": {"CC50": "µM"}, "values": [{"compound": "CS(=O)(=O)CCCN1C(=O)c2ccccc2C(CC(=O)c2ccccc2)C1=O", "note": "(stereo unspecified)", "CC50": "> 100"}, {"compound": "CSCCCN1C(=O)c2ccccc2C(CC(=O)c2ccccc2)C1=O", "note": "(stereo unspecified)", "CC50": 63}, {"compound": "CN1C(=O)c2ccccc2C(CC(=O)c2ccc(F)cc2)C1=O", "note": "(stereo unspecified)", "CC50": "> 100"}, {"compound": "CCOC(=O)CCN1C(=O)c2ccccc2C(CC(=O)c2ccccc2)C1=O", "note": "(stereo unspecified)", "CC50": "> 100"}, {"compound": "CS(=O)(=O)CCN1C(=O)c2ccccc2C(CC(=O)c2ccccc2)C1=O", "note": "(stereo unspecified)", "CC50": 70.5}]}]}
